# Patent publication US20160115540A1, “PRODRUGS AND DRUGS” (Biogen MA Inc., priority 2013, published 2016)
# Structures can show the parent of a compound that is named as a salt.
# System: jejunum
# Assay: Transcriptional profiling on Affymetrix GeneChips, single dose, naïve mice: jejunum
# Assay type: in vivo, C57BL/6 mice
# Protocol: Treated mice were sacrificed at 2, 7, or 12 hours. Tissues (liver, spleen, kidney, jejunum, cortex, hippocampus, striatum and whole blood) were collected and analyzed by transcriptional profiling on mouse Affymetrix GeneChips.
# Tissues (liver, spleen, kidney, jejunum, cortex, hippocampus, striatum and whole blood) were collected and analyzed by transcriptional profiling on mouse Affymetrix GeneChips.
# Animals were exposed to CO2 and whole blood collected via cardiac puncture. Two 100 μl aliquots of whole blood were collected in 1.5 mL microcentrifuge tubes and snap frozen in liquid nitrogen. Peripheral (liver, spleen, kidney and jejunum) and CNS brain (cerebellum, hippocampus, striatum and cortex) tissues were harvested and snap frozen in liquid nitrogen, with special care taken to collect tissues of similar size and from the same location. All samples were stored at −80° C. until RNA extraction was conducted.
# For RNA preparation, frozen tissues were placed in 2 mL RNAse-free 96-well blocks with 1.5 mL QIAzol Lysis Reagent (QIAgen) and a 3.2 mm stainless steel bead (BioSpec Products, Bartlesville, Okla.). Tissues were disrupted for four cycles of 45 seconds in a Mini-Beadbeater (Biospec Products). RNA was extracted in chloroform and the aqueous phase was mixed with an equal volume of 70% ethanol. Extracted RNA was applied to RNeasy 96 plates and purified by the spin method according to the manufacturer's protocol (RNeasy 96 Universal Tissue Protocol, QIAgen, Hilden Germany).
# Automated sample amplifications and biotin labelings were carried out using the NuGEN Ovation RNA Amplification system V2 (Cat #3100), Ovation WB reagent (Cat #1300) and Encore Biotin module (Cat #4200) (NuGEN Technologies, Inc, San Carlos, Calif.) according to manufacturer's recommendations using an Arrayplex automated liquid handler (Beckman Coulter, Indianapolis, Ind.). Two micrograms of biotin labeled sscDNA probe were hybridized to Affymetrix GeneChip Affymetrix HT_MG-430_PM plate arrays with modified conditions as described in Allaire et al. Washing and staining of the hybridized arrays were completed as described in the GeneChip Expression analysis technical manual for HT plate arrays using the Genechip® Array Station (Affymetrix, Santa Clara, Calif.) with modifications as described in Allaire et al. The processed GeneChip® plate arrays were scanned using GeneTitan scanner (Affymetrix, Santa Clara, Calif.).
# Affymetrix scans were subject to quality control (QC) measures. These tests included a visual inspection of the distribution of raw signal intensities and an assessment of RNA degradation, relative log expression (RLE), and normalized unsealed standard error (NUSE). All sample scans that passed these QC metrics were included in the analysis.
# All CEL files were subjected to GC-content-based Robust Multi-array Average (GCRMA) normalization (version 2.20.0) (Irizarry R A, et al. Nucleic Acids Res 2003; 31:e15; Li C, et al. Genome Biol 2001; 2:[…]0032). Expression levels were log (base 2) transformed.
# All calculations and analyses were carried out using R (version 2.11.1) and Bioconductor computational tools (Gentleman R. Springer Science+Business Media 2005).
# [1] = 100DMF-vs-Veh or 100MMF-vs-Veh, 12 h
structure (smiles),measurement,setting,value
"COC(=O)/C=C/C(=O)OC [DMF, dimethyl fumarate]",FC Lrp8 (1440882_PM_at),"100DMF-vs-100MMF, 2 h",−1.69
same,FC Alb (1425260_PM_at),"100DMF-vs-100MMF, 7 h",9.97
same,FC G6pc (1417880_PM_at),"100DMF-vs-100MMF, 7 h",−2.45
same,FC Abcc3 (1428988_PM_at),[1],2.02
same,FC Acsm5 (1437662_PM_at),[1],1.86
same,FC Akr1b8 (1448894_PM_at),[1],17.57
same,FC Akr1c12 (1450455_PM_s_at),[1],1.72
same,FC Akr1c19 (1455454_PM_at),[1],3.20
same,FC Blvrb (1451386_PM_at),[1],1.53
same,FC Cbr3 (1427912_PM_at),[1],25.95
same,FC Ces1e (1419510_PM_at),[1],2.70
same,FC Ces1f (1424266_PM_s_at),[1],6.17
same,FC Ces1g (1449486_PM_at),[1],7.40
same,FC G6pd2 (1422327_PM_s_at),[1],1.74
same,FC Gpx2 (1449279_PM_at),[1],1.67
same,FC Gsr (1421816_PM_at),[1],2.20
same,FC Gss (1441931_PM_x_at),[1],1.53
same,FC Gsta2 (1421040_PM_a_at),[1],5.65
same,FC Gsta2 (1421041_PM_s_at),[1],2.04
same,FC Gsta3 (1423436_PM_at),[1],10.36
same,FC Gsta3 (1423437_PM_at),[1],7.86
same,FC Gstm1 (1425627_PM_x_at),[1],4.63
same,FC Gstm1 (1448330_PM_at),[1],4.15
same,FC Gstm3 (1427473_PM_at),[1],2.03
same,FC Gstm3 (1427474_PM_s_at),[1],1.57
same,FC Gstm4 (1424835_PM_at),[1],5.03
same,FC Gstm6 (1422072_PM_a_at),[1],1.95
same,FC Nqo1 (1423627_PM_at),[1],2.30
same,FC Pir (1429001_PM_at),[1],3.79
same,FC Setd4 (1425239_PM_at),[1],1.66
same,FC Setd4 (1460373_PM_a_at),[1],1.52
same,FC Slc5a4b (1422757_PM_at),[1],2.21
same,FC Ugt2b5 (1419622_PM_at),[1],4.92
same,FC Ugt2b35 (1439624_PM_at),[1],2.37
same,FC Ugt2b36 (1455595_PM_at),[1],2.94
same,"Number of genes, DMF Only / MMF Only",Jejunum,9
same,Akr1c13 (1418672_PM_at) differential expression,"Jejunum, 2 hr",1.62
same,Areg (1421134_PM_at) differential expression,"Jejunum, 2 hr",3.58
same,B3galt5 (1428397_PM_at) differential expression,"Jejunum, 2 hr",−2.77
same,Cbr1 (1460196_PM_at) differential expression,"Jejunum, 2 hr",1.55
same,Ces1e (1419510_PM_at) differential expression,"Jejunum, 2 hr",1.85
same,Dnase2a (1430135_PM_at) differential expression,"Jejunum, 2 hr",1.77
same,Dppa5a (1416552_PM_at) differential expression,"Jejunum, 2 hr",3.07
same,Dusp4 (1428834_PM_at) differential expression,"Jejunum, 2 hr",1.51
same,Entpd5 (1433763_PM_at) differential expression,"Jejunum, 2 hr",1.53
same,Ereg (1419431_PM_at) differential expression,"Jejunum, 2 hr",2.50
same,Ero1l (1419030_PM_at) differential expression,"Jejunum, 2 hr",1.92
same,Esd (1441604_PM_at) differential expression,"Jejunum, 2 hr",1.71
same,Fam13a (1456611_PM_at) differential expression,"Jejunum, 2 hr",1.54
same,Gclc (1424296_PM_at) differential expression,"Jejunum, 2 hr",4.25
same,Gsr (1421816_PM_at) differential expression,"Jejunum, 2 hr",2.23
same,Gss (1441931_PM_x_at) differential expression,"Jejunum, 2 hr",1.95
same,Gsta3 (1423436_PM_at) differential expression,"Jejunum, 2 hr",4.03
same,Gsta4 (1416368_PM_at) differential expression,"Jejunum, 2 hr",1.72
same,Gstm1 (1416416_PM_x_at) differential expression,"Jejunum, 2 hr",2.30
same,Mafg (1448916_PM_at) differential expression,"Jejunum, 2 hr",2.20
same,Nos2 (1420393_PM_at) differential expression,"Jejunum, 2 hr",−2.39
same,Nqo1 (1423627_PM_at) differential expression,"Jejunum, 2 hr",2.16
same,Osgin1 (1424022_PM_at) differential expression,"Jejunum, 2 hr",2.08
same,Pgm2 (1437240_PM_at) differential expression,"Jejunum, 2 hr",2.15
same,Prss8 (1418320_PM_at) differential expression,"Jejunum, 2 hr",2.60
same,Ptk6 (1442923_PM_at) differential expression,"Jejunum, 2 hr",−2.42
same,Setd4 (1435405_PM_at) differential expression,"Jejunum, 2 hr",1.91
same,Slc35e3 (1428805_PM_at) differential expression,"Jejunum, 2 hr",1.53
same,Slc40a1 (1417061_PM_at) differential expression,"Jejunum, 2 hr",2.33
same,Srr (1453421_PM_at) differential expression,"Jejunum, 2 hr",1.99
same,Srxn1 (1425351_PM_at) differential expression,"Jejunum, 2 hr",1.71
same,Tifa (1426501_PM_a_at) differential expression,"Jejunum, 2 hr",−2.43
same,Tox3 (1436600_PM_at) differential expression,"Jejunum, 2 hr",1.70
same,Tsku (1440230_PM_at) differential expression,"Jejunum, 2 hr",1.61
same,Ugt2b5 (1419622_PM_at) differential expression,"Jejunum, 2 hr",3.40
same,Ugt2b36 (1455595_PM_at) differential expression,"Jejunum, 2 hr",2.07
same,Unc5c1 (1429950_PM_at) differential expression,"Jejunum, 2 hr",−1.53
same,Abcc3 (1428988_PM_at) differential expression,"Jejunum, 7 hr",1.88
same,Acsm5 (1437662_PM_at) differential expression,"Jejunum, 7 hr",1.60
same,Akr1c13 (1418672_PM_at) differential expression,"Jejunum, 7 hr",1.61
same,Cbr1 (1460196_PM_at) differential expression,"Jejunum, 7 hr",1.65
same,Ces1e (1419510_PM_at) differential expression,"Jejunum, 7 hr",2.10
same,Ddc (1426215_PM_at) differential expression,"Jejunum, 7 hr",1.74
same,G6pd2 /// G6pdx (1422327_PM_s_at) differential expression,"Jejunum, 7 hr",1.82
same,G6pdx (1448354_PM_at) differential expression,"Jejunum, 7 hr",1.54
same,Gclc (1424296_PM_at) differential expression,"Jejunum, 7 hr",2.06
same,Gm3776 /// Gsta1 /// Gsta2 (1421041_PM_s_at) differential expression,"Jejunum, 7 hr",1.72
same,Gsr (1421816_PM_at) differential expression,"Jejunum, 7 hr",2.83
same,Gss (1441931_PM_x_at) differential expression,"Jejunum, 7 hr",1.97
same,Gsta3 (1423436_PM_at) differential expression,"Jejunum, 7 hr",4.27
same,Gsta4 (1416368_PM_at) differential expression,"Jejunum, 7 hr",2.09
same,Gstm1 (1416416_PM_x_at) differential expression,"Jejunum, 7 hr",3.19
same,Gstm2 (1416411_PM_at) differential expression,"Jejunum, 7 hr",1.58
same,Gstm4 (1424835_PM_at) differential expression,"Jejunum, 7 hr",3.83
same,Gstm6 (1422072_PM_a_at) differential expression,"Jejunum, 7 hr",1.94
same,Htatip2 (1451814_PM_a_at) differential expression,"Jejunum, 7 hr",1.51
same,Nqo1 (1423627_PM_at) differential expression,"Jejunum, 7 hr",2.31
same,Pir (1429001_PM_at) differential expression,"Jejunum, 7 hr",3.79
same,Setd4 (1435405_PM_at) differential expression,"Jejunum, 7 hr",1.90
same,Slc5a4b (1422757_PM_at) differential expression,"Jejunum, 7 hr",1.67
same,Txnrd1 (1424487_PM_x_at) differential expression,"Jejunum, 7 hr",1.60
same,Ugt2b5 (1419622_PM_at) differential expression,"Jejunum, 7 hr",3.42
same,Ugt2b36 (1455595_PM_at) differential expression,"Jejunum, 7 hr",2.23
same,Abcc3 (1428988_PM_at) differential expression,"Jejunum, 12 hr",2.02
same,Acsm5 (1437662_PM_at) differential expression,"Jejunum, 12 hr",1.86
same,Akr1c12 /// Akr1c13 (1450455_PM_s_at) differential expression,"Jejunum, 12 hr",1.72
same,Aldh1a7 (1418601_PM_at) differential expression,"Jejunum, 12 hr",1.65
same,Blvrb (1451386_PM_at) differential expression,"Jejunum, 12 hr",1.53
same,Ces1e (1419510_PM_at) differential expression,"Jejunum, 12 hr",2.70
same,G6pd2 /// G6pdx (1422327_PM_s_at) differential expression,"Jejunum, 12 hr",1.74
same,Gm3776 /// Gsta1 /// Gsta2 (1421041_PM_s_at) differential expression,"Jejunum, 12 hr",2.04
same,Gpx2 (1449279_PM_at) differential expression,"Jejunum, 12 hr",1.67
same,Gsr (1421816_PM_at) differential expression,"Jejunum, 12 hr",2.20
same,Gss (1441931_PM_x_at) differential expression,"Jejunum, 12 hr",1.53
same,Gsta3 (1423436_PM_at) differential expression,"Jejunum, 12 hr",10.36
same,Gsta4 (1416368_PM_at) differential expression,"Jejunum, 12 hr",2.58
same,Gstm1 (1416416_PM_x_at) differential expression,"Jejunum, 12 hr",4.15
same,Gstm2 (1416411_PM_at) differential expression,"Jejunum, 12 hr",2.04
same,Gstm4 (1424835_PM_at) differential expression,"Jejunum, 12 hr",5.03
same,Gstm6 (1422072_PM_a_at) differential expression,"Jejunum, 12 hr",1.95
same,Nqo1 (1423627_PM_at) differential expression,"Jejunum, 12 hr",2.30
